Experimental data reported in ChEMBL document CHEMBL1127773, “Inhibition of steroid 5-reductase by inverted, competitive inhibitors” (Bioorg Med Chem Lett, 1994).

Biological target: T1, 3-oxo-5-alpha-steroid 4-dehydrogenase 2 (Homo sapiens, UniProt P31213)
T1 sequence (P31213 whole entry): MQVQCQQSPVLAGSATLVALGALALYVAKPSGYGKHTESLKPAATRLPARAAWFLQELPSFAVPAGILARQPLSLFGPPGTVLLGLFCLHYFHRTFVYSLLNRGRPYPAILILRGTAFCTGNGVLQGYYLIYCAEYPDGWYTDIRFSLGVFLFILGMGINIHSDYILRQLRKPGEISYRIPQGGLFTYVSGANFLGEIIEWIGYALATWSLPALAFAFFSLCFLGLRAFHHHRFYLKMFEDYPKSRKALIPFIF
Experiment: Inhibitory activity against human prostatic Steroid 5-alpha-reductase

| Compound | IC50 [µM] |
| --- | --- |
| CC(C)N(C(=O)[C@@H]1C[C@@H]2CCC3C4CCC(=O)N(C)[C@@]4(C)CCC3[C@@]2(C)C1)C(C)C (stereo partly drawn) | > 100 |
| CC(C)N(C(=O)[C@@H]1CC2CCC3C(CC[C@@]4(C)C3CCC(=O)N4C)[C@@]2(C)C1)C(C)C (stereo partly drawn) | 40 |
| CCN(CC)C(=O)[C@H]1CC[C@H]2[C@@H]3CC[C@H]4N(C)C(=O)CC[C@]4(C)[C@H]3CC[C@]12C | 0.0086 |
| CN1C(=O)CC[C@@]2(C)C1CC[C@H]1[C@@H]3CC[C@H](O)[C@@]3(C)CC[C@@H]12 (stereo partly drawn) | > 0.43 |
| CN1C(=O)CCC2C3CC[C@H]4CC(=O)CC[C@]4(C)C3CC[C@@]21C (stereo partly drawn) | 15 |
| CN1C(=O)CCC2C3CC[C@H]4C[C@@H](O)CC[C@]4(C)C3CC[C@@]21C (stereo partly drawn) | 4 |
| CN1C(=O)CCC2C3CCC4[C@@H](O)CC[C@]4(C)C3CC[C@@]21C (stereo partly drawn) | 12 |
| CN1C(=O)CCC2C3CC=C4C[C@@H](O)CC[C@]4(C)C3CC[C@@]21C (stereo partly drawn) | 32 |
